The values that follow come from US5080904A, “Liposome composition and its production” (Takeda Chemical Industries, Ltd., priority 1989, dated 1992).

A short description of one data set: Phase transition temperature of the lipid. It is filed as physicochemical.
Details: not given
Take `CCCCCCCCCCCCCCCCCC(=O)OCC(COP(=O)(O)OCC(N)C(=O)O)OC(=O)CCCCCCCCCCCCCCCCC` (centres unmarked) [DSPS, distearoylphosphatidylserine]: the “phase transition temperature (found value) of phospholipid” value was “over 50 °C”.
The same measure, in the same setting: as for `CCCCCCCCCCCCCCCCCC(=O)OCC(COP(=O)([O-])OCC[N+](C)(C)C)OC(=O)CCCCCCCCCCCCCCCCC` (centres unmarked) [DSPC, distearoylphosphatidylcholine], the figure is 54.9 °C.
Still for that read-out and setting: as for dipalmitoylsphingomyelin [DPSM], the figure is 41 °C.
Same read-out and setting: as for `CCCCCCCCCCCCCCCCCC(=O)O[C@H](COC(=O)CCCCCCCCCCCCCCC)COP(=O)([O-])OCC[N+](C)(C)C` [PSPC, palmitoylstearoylphosphatidylcholine], the figure is 47.4 °C.
As for `CCCCCCCCCCCCCCCC(=O)OC[C@H](COP(=O)([O-])OCC[N+](C)(C)C)OC(=O)CCCCCCCCCCCCC` [PMPC, palmitoylmyristoylphosphatidylcholine], the “phase transition temperature (found value) of phospholipid” value worked out at 27.2 °C.
Turning to `CCCCCCCCCCCCCC(=O)OCC(COP(=O)(O)OCC(N)C(=O)O)OC(=O)CCCCCCCCCCCCC` (centres unmarked) [DMPS, dimyristoylphosphatidylserine], the “phase transition temperature (found value) of phospholipid” value was found to be 38 °C.
Same read-out and setting: as for `CCCCCCCCCCCCCC(=O)OCC(COP(=O)(O)OCC(O)CO)OC(=O)CCCCCCCCCCCCC` (centres unmarked) [DMPG, dimyristoylphosphatidylglycerol], the figure is 23 °C.
With `CCCCCCCCCCCCCCCCCC(=O)OC[C@H](COP(=O)([O-])OCC[N+](C)(C)C)OC(=O)CCCCCCCCCCCCCCC` [SPPC, stearoylpalmitoylphosphatidylcholine], the “phase transition temperature (found value) of phospholipid” value was determined as 44.0 °C.
The same measure, in the same setting: as for `CCCCCCCCCCCCCC(=O)OCC(COP(=O)(O)OCCN)OC(=O)CCCCCCCCCCCCC` (centres unmarked) [DMPE, dimyristoylphosphatidylethanolamine], the figure is 50 °C; as for `CCCCCCCCCCCCCCCCCC(=O)OCC(COP(=O)(O)OCC(O)CO)OC(=O)CCCCCCCCCCCCCCCCC` (centres unmarked) [DSPG, distearoylphosphatidylglycerol], 55 °C; as for `CCCCCCCCCCCCCC(=O)OC[C@H](COP(=O)([O-])OCC[N+](C)(C)C)OC(=O)CCCCCCCCCCCCC` [DMPC, dimyristoylphosphatidylcholine], 23.9 °C.
Take `CCCCCCCCCCCCCCCCCC(=O)OCC(COP(=O)(O)OCCN)OC(=O)CCCCCCCCCCCCCCCCC` (centres unmarked) [DSPE, disteraroylphosphatidylethanolamine]: the “phase transition temperature (found value) of phospholipid” value was “over 60 °C”.
On the same count and under the same terms, as for `CCCCCCCCCCCCCCCC(=O)OC[C@H](COP(=O)([O-])OCC[N+](C)(C)C)OC(=O)CCCCCCCCCCCCCCC` [DPPC, dipalmitoylphosphatidylcholine], the figure is 41.4 °C; as for distearoylsphingomyelin [DSSM], 57 °C.
On the same count and under the same terms, as for `CCCCCCCCCCCCCCCC(=O)OCC(COP(=O)(O)OCCN)OC(=O)CCCCCCCCCCCCCCC` (centres unmarked) [DPPE, dipalmitoylphosphatidylethanolamine], the figure is 60 °C.
Take `CCCCCCCCCCCCCCCC(=O)OCC(COP(=O)(O)OCC(N)C(=O)O)OC(=O)CCCCCCCCCCCCCCC` (centres unmarked) [DPPS, dipalmitoylphosphatidylserine]: the “phase transition temperature (found value) of phospholipid” value worked out at 51 °C.
The same measure, in the same setting: as for `CCCCCCCCCCCCCCCC(=O)OCC(COP(=O)(O)OCC(O)CO)OC(=O)CCCCCCCCCCCCCCC` (centres unmarked) [DPPG, dipalmitoylphosphatidylglycerol], the figure is 41 °C.
The same measure, in the same setting: as for “myristoylpalmitoylphosphatidylcholine [MPPC]”, the figure is 35.3 °C.

Test in the next data set: not given
The conditions noted are these: Biochemica et Biophysica Acta, 859, 246-256 (1986); cited from earlier work.
In the case of sulfatide, the “phase transition temperature of sulfatide, first value” was 34.8 °C and the “phase transition temperature of sulfatide, second value” was 47.3 °C.
